Assay results taken from PubChem BioAssay AID328 (DTP/NCI, 2004).
“And” between values parts separate entries of the source, which are not always exact repeats. Identical values can stand only once. Toxic doses and inconclusive results are not listed.

Tested on: BDF1 mice, P388 leukemia ip, median survival T/C
Assay: NCI In Vivo Anticancer Drug Screen. Data for tumor model P388 Leukemia (intraperitoneal) in B6D2F1 (BDF1) mice
Details: endpoint: median survival time, higher = longer survival
Procedure: The antitumor activity of compounds was measured in mice bearing transplantable tumors. Survival or tumor size were measured and the results are expressed as the measurement made in the treated group (T) divided by the measurement made in the vehicle treated control group (C). The tumor model used in this assay is P388 Leukemia (intraperitoneal) in B6D2F1 (BDF1) mice

[1] = dose: 50.0 mg/kg/injection, schedule: Q01DX009 (ip), vehicle: saline with Tween-80
[2] = dose: 100.0 mg/kg/injection, schedule: Q01DX009 (ip), vehicle: saline with Tween-80
[3] = dose: 200.0 mg/kg/injection, schedule: Q01DX009 (ip), vehicle: saline with Tween-80
[4] = dose: 100.0 mg/kg/injection, schedule: Q01DX009 (ip), vehicle: other
[5] = dose: 100.0 mg/kg/injection, schedule: Q04DX003 (ip), vehicle: other
[6] = dose: 200.0 mg/kg/injection, schedule: Q04DX003 (ip), vehicle: other

Cc1ccc(N=Cc2ccccc2O)cc1Cl
T/C (dose: 100.0 mg/kg/injection, schedule: Q01DX001 (ip), vehicle: saline with Tween-80): 109 % of control | T/C (dose: 200.0 mg/kg/injection, schedule: Q01DX001 (ip), vehicle: saline with Tween-80): 100 % of control | T/C (dose: 400.0 mg/kg/injection, schedule: Q01DX001 (ip), vehicle: saline with Tween-80): 100 % of control

C=CC(COC(C)=O)N1CC1 (stereo unspecified)
T/C (dose: 4.0 mg/kg/injection, schedule: Q01DX009 (ip), vehicle: saline): 104 % of control | T/C (dose: 6.0 mg/kg/injection, schedule: Q01DX009 (ip), vehicle: saline): 115 % of control | T/C (dose: 8.0 mg/kg/injection, schedule: Q01DX009 (ip), vehicle: saline): 112 % of control | T/C (dose: 12.0 mg/kg/injection, schedule: Q04DX003 (ip), vehicle: saline): 110 % of control | T/C (dose: 17.0 mg/kg/injection, schedule: Q01DX009 (ip), vehicle: saline): 116 % of control | T/C (dose: 25.0 mg/kg/injection, schedule: Q01DX009 (ip), vehicle: saline): 150 % of control and 165 % of control | T/C (dose: 25.0 mg/kg/injection, schedule: Q04DX003 (ip), vehicle: saline): 120 % of control | T/C (dose: 37.0 mg/kg/injection, schedule: Q01DX009 (ip), vehicle: saline): 180 % of control

COc1c(O)cc2c(c1OC)-c1ccc(OC)c(=O)cc1[C@@H](NC(C)=O)CC2
T/C (dose: 0.62 mg/kg/injection, schedule: Q01DX009 (ip), vehicle: saline with Tween-80): 114 % of control | T/C (dose: 0.63 mg/kg/injection, schedule: Q01DX009 (ip), vehicle: saline with Tween-80): 159 % of control | T/C (dose: 1.25 mg/kg/injection, schedule: Q01DX009 (ip), vehicle: saline with Tween-80): 210 % of control | T/C (dose: 2.5 mg/kg/injection, schedule: Q01DX009 (ip), vehicle: saline with Tween-80): 236 % of control and 200 % of control | T/C (dose: 5.0 mg/kg/injection, schedule: Q01DX009 (ip), vehicle: saline with Tween-80): 236 % of control and 222 % of control | T/C (dose: 10.0 mg/kg/injection, schedule: Q01DX009 (ip), vehicle: saline with Tween-80): 210 % of control

O=Cc1cc(O)ccc1[N+](=O)[O-]
T/C [1]: 95 % of control | T/C [2]: 104 % of control | T/C (dose: 100.0 mg/kg/injection, schedule: Q04DX003 (ip), vehicle: saline with Tween-80): 104 % of control | T/C [3]: 100 % of control | T/C (dose: 200.0 mg/kg/injection, schedule: Q04DX003 (ip), vehicle: saline with Tween-80): 90 % of control

CCOC(=O)C1(c2ccccc2)C(=O)Oc2ccccc21 (stereo unspecified)
T/C (dose: 25.0 mg/kg/injection, schedule: Q01DX009 (ip), vehicle: saline with Tween-80): 100 % of control | T/C [1]: 98 % of control | T/C [2]: 108 % of control | T/C [3]: 122 % of control

CCCCC(=O)OCC1OC(n2cnc3c(=S)nc[nH]c32)C(OC(=O)CCCC)C1OC(=O)CCCC (stereo unspecified)
T/C (dose: 12.5 mg/kg/injection, schedule: Q01DX009 (sc), vehicle: olive oil, sesame oil, peanut oil): 100 % of control | T/C (dose: 25.0 mg/kg/injection, schedule: Q01DX009 (sc), vehicle: olive oil, sesame oil, peanut oil): 91 % of control | T/C (dose: 50.0 mg/kg/injection, schedule: Q01DX009 (sc), vehicle: olive oil, sesame oil, peanut oil): 100 % of control | T/C (dose: 100.0 mg/kg/injection, schedule: Q01DX009 (sc), vehicle: olive oil, sesame oil, peanut oil): 96 % of control | T/C (dose: 100.0 mg/kg/injection, schedule: Q04DX003 (sc), vehicle: olive oil, sesame oil, peanut oil): 108 % of control | T/C (dose: 200.0 mg/kg/injection, schedule: Q04DX003 (sc), vehicle: olive oil, sesame oil, peanut oil): 108 % of control | T/C (dose: 400.0 mg/kg/injection, schedule: Q04DX003 (sc), vehicle: olive oil, sesame oil, peanut oil): 116 % of control

CC1(C)O[C@]2(C)CC[C@@H]1[C@@H](O)[C@@H]2N1CCCC1
T/C (dose: 50.0 mg/kg/injection, schedule: Q01DX005 (ip), vehicle: saline): 95 % of control | T/C (dose: 100.0 mg/kg/injection, schedule: Q01DX005 (ip), vehicle: saline): 106 % of control | T/C (dose: 200.0 mg/kg/injection, schedule: Q01DX005 (ip), vehicle: saline): 106 % of control

c1ccc(P(CCP(CCP(c2ccccc2)c2ccccc2)c2ccccc2)CCP(c2ccccc2)c2ccccc2)cc1 (stereo unspecified)
T/C [2]: 90 % of control and 100 % of control | T/C [3]: 110 % of control and 100 % of control | T/C (dose: 400.0 mg/kg/injection, schedule: Q01DX009 (ip), vehicle: saline with Tween-80): 100 % of control and 120 % of control

CN(C)c1ncnc2c1ncn2C1OC(CO)C(N)C1O (stereo unspecified)
T/C (dose: 14.0 mg/kg/injection, schedule: Q01DX009 (ip), vehicle: saline): 95 % of control | T/C (dose: 22.0 mg/kg/injection, schedule: Q01DX009 (ip), vehicle: saline): 100 % of control | T/C (dose: 50.0 mg/kg/injection, schedule: Q01DX009 (ip), vehicle: saline): 150 % of control and 177 % of control

O=[N+]([O-])c1ccc(C(F)(F)F)cc1
T/C (dose: 25.0 mg/kg/injection, schedule: Q01DX009 (ip), vehicle: other): 109 % of control | T/C (dose: 50.0 mg/kg/injection, schedule: Q01DX009 (ip), vehicle: other): 104 % of control | T/C (dose: 50.0 mg/kg/injection, schedule: Q04DX003 (ip), vehicle: other): 95 % of control | T/C [4]: 113 % of control | T/C [5]: 100 % of control | T/C [6]: 100 % of control

CCC(/C=C\C(C)C1CCC2C3CC=C4CC(O)CCC4(C)C3CCC12C)C(C)C (stereo unspecified)
T/C (dose: 50.0 mg/kg/injection, schedule: Q01DX010 (ip), vehicle: saline): 104 % of control | T/C (dose: 100.0 mg/kg/injection, schedule: Q01DX010 (ip), vehicle: saline): 108 % of control | T/C (dose: 200.0 mg/kg/injection, schedule: Q01DX010 (ip), vehicle: saline): 100 % of control | T/C (dose: 400.0 mg/kg/injection, schedule: Q01DX010 (ip), vehicle: saline): 91 % of control

CS(=O)CC(O)(c1cccs1)C1CC1 (stereo unspecified)
T/C [1]: 103 % of control | T/C [2]: 117 % of control | T/C [3]: 98 % of control

CC1(C)N=C(N)N=C(N)N1c1ccc(CCc2ccccc2)cc1
T/C (dose: 22.0 mg/kg/injection, schedule: Q01DX009 (ip), vehicle: saline with Tween-80): 104 % of control | T/C (dose: 33.0 mg/kg/injection, schedule: Q01DX009 (ip), vehicle: saline with Tween-80): 100 % of control | T/C [1]: 112 % of control

Cc1ccc(S(=O)(=O)Oc2cc([N+](=O)[O-])ccc2N)cc1
T/C (dose: 100.0 mg/kg/injection, schedule: Q01DX001 (ip), vehicle: saline): 109 % of control | T/C (dose: 200.0 mg/kg/injection, schedule: Q01DX001 (ip), vehicle: saline): 100 % of control | T/C (dose: 400.0 mg/kg/injection, schedule: Q01DX001 (ip), vehicle: saline): 104 % of control

O=C1C(Cl)=C(Nc2nccs2)C(=O)c2ccccc21
T/C (dose: 50.0 mg/kg/injection, schedule: Q01DX005 (ip), vehicle: saline with Tween-80): 102 % of control | T/C (dose: 100.0 mg/kg/injection, schedule: Q01DX005 (ip), vehicle: saline with Tween-80): 107 % of control | T/C (dose: 200.0 mg/kg/injection, schedule: Q01DX005 (ip), vehicle: saline with Tween-80): 118 % of control

CSCCCNC(=O)c1csc(-c2csc(CCNC(=O)C(F)(F)F)n2)n1
T/C [1]: 103 % of control | T/C [2]: 114 % of control | T/C [3]: 87 % of control

C=C1C(=O)OC2C1C(OC(=O)/C(C)=C/CO)C/C(C)=C/CCC1(CO)OC21 (stereo unspecified)
T/C (dose: 0.5 mg/kg/injection, schedule: Q01DX009 (ip), vehicle: Klucel (hydroxypropylcellulose) (HPC)): 97 % of control | T/C (dose: 1.0 mg/kg/injection, schedule: Q01DX009 (ip), vehicle: Klucel (hydroxypropylcellulose) (HPC)): 94 % of control | T/C (dose: 2.0 mg/kg/injection, schedule: Q01DX009 (ip), vehicle: Klucel (hydroxypropylcellulose) (HPC)): 101 % of control | T/C (dose: 4.0 mg/kg/injection, schedule: Q01DX009 (ip), vehicle: Klucel (hydroxypropylcellulose) (HPC)): 100 % of control

O=C(Nc1cccc(Cl)c1)Oc1ccc2ccccc2c1
T/C (dose: 100.0 mg/kg/injection, schedule: Q01DX001 (ip), vehicle: Klucel (hydroxypropylcellulose) (HPC)): 109 % of control | T/C (dose: 200.0 mg/kg/injection, schedule: Q01DX001 (ip), vehicle: Klucel (hydroxypropylcellulose) (HPC)): 113 % of control | T/C (dose: 400.0 mg/kg/injection, schedule: Q01DX001 (ip), vehicle: Klucel (hydroxypropylcellulose) (HPC)): 100 % of control

Cc1cc(C)c(C(=O)CC(=O)c2cccnc2)c(C)c1
T/C [4]: 115 % of control | T/C [5]: 100 % of control | T/C (dose: 200.0 mg/kg/injection, schedule: Q01DX009 (ip), vehicle: other): 120 % of control | T/C [6]: 100 % of control | T/C (dose: 400.0 mg/kg/injection, schedule: Q01DX009 (ip), vehicle: other): 110 % of control | T/C (dose: 400.0 mg/kg/injection, schedule: Q04DX003 (ip), vehicle: other): 100 % of control

Cc1ccc2c(ccc(/C=C/c3ccc(O)c4ncccc34)[n+]2C)c1
T/C (dose: 75.0 mg/kg/injection, schedule: Q01DX009 (ip), vehicle: Klucel (hydroxypropylcellulose) (HPC)): 104 % of control
